Experimental data: patent US20250059174A1, “Pharmaceutical Compounds and Compositions as C-Kit Kinase Inhibitors” (Enanta Pharmaceuticals, Inc., priority 2023, published 2025)

Columns and labels:
[1] = biological target: Recombinant human c-KIT kinase (Homo sapiens (Human), UniProt P10721); test: c-KIT kinase chemiluminescence assay (ADP-Glo); format: biochemical; conditions: ATP 50 μM
Summary of the method: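 ADP formed by c-KIT on polyEY over 2 h at RT (after 30 min enzyme preincubation; Tris pH 7.5, MgCl2, BSA, DTT buffer) was detected by ADP-Glo luminescence. IC50 and Hill slope were fitted to control-normalized activity across compound concentrations.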

M-07e cells = test: M-07e cellular assay (SCF-mediated cell proliferation); format: cell-based; conditions: Homo sapiens, 72 hours, CellTiter Glo
Summary of the method: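 CellTiter Glo luminescence after 72 h compound exposure in SCF (EC90)-stimulated M-07e cells expressing endogenous human c-KIT.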

Recombinant human c-KIT kinase, sequence (P10721 26-976): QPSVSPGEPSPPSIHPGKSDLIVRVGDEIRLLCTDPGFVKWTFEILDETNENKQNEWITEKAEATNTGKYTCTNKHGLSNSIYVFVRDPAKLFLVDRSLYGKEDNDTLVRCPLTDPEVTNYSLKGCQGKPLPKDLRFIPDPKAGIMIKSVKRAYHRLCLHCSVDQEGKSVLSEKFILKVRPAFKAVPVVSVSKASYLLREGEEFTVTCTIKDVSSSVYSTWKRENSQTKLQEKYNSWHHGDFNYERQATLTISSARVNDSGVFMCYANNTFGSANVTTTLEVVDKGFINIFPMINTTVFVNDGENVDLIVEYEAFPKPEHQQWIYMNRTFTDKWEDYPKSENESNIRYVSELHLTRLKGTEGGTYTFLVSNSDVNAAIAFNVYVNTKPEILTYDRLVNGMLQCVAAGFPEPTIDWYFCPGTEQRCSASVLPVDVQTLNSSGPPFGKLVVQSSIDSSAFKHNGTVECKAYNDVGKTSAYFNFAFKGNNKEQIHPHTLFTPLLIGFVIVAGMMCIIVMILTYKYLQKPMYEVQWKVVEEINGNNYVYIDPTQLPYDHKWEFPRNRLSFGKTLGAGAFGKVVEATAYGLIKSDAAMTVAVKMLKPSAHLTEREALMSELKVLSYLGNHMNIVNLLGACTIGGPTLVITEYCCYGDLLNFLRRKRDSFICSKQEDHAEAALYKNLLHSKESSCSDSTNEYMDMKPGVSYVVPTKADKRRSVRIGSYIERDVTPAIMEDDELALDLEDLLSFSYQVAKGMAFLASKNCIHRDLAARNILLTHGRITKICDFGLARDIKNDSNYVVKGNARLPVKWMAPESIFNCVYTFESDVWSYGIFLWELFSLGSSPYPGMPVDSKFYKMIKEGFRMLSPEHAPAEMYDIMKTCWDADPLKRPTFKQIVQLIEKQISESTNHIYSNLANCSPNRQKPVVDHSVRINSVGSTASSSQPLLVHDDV

Compound	IC50 [1] [nM]	EC50 (M-07e cells) [nM]
Cc1ccc(-c2noc([C@H]3C[C@@H]3F)n2)cc1NC(=O)c1cnn2ccc(-c3c(C)nn(C4COC4)c3C)cc12 [Example 145]	< 100	< 100
COCCn1nc(C)c(-c2ccn3ncc(C(=O)Nc4cc(-c5noc([C@H]6C[C@@H]6F)n5)ccc4C)c3c2)c1C [Example 146]	< 100	< 100
Cc1ccc(-c2noc([C@H]3C[C@@H]3F)n2)cc1NC(=O)c1cnn2ccc(-c3ccc(F)cc3)cc12 [Example 148]	100 to 1000	100 to 1000
Cc1ccc(-c2noc([C@H]3C[C@@H]3F)n2)cc1NC(=O)c1cnn2cc(-c3ccc(F)cc3)ccc12 [Example 149]	< 100	< 100
Cc1ccc(-c2noc([C@H]3C[C@@H]3F)n2)cc1NC(=O)c1cnn2ccc(-c3cccnc3)cc12 [Example 150]	< 100	< 100
Cc1ccc(-c2noc([C@H]3C[C@@H]3F)n2)cc1NC(=O)c1cnn2cc(-c3cccnc3)ccc12 [Example 151]	< 100	< 100
Cc1ccc(-c2noc([C@H]3C[C@@H]3F)n2)cc1NC(=O)c1cnn2ccc(-c3c(C)nn(CC(C)(C)O)c3C)cc12 [Example 152]	< 100	< 100
COCCn1cc(-c2ccn3ncc(C(=O)Nc4cc(-c5noc([C@H]6C[C@@H]6F)n5)ccc4C)c3c2)cn1 [Example 153]	< 100	< 100
Cc1ccc(-c2noc([C@H]3C[C@@H]3F)n2)cc1NC(=O)c1cnn2ccc(-c3cncnc3)cc12 [Example 154]	< 100	< 100
Cc1ccc(-c2noc([C@H]3C[C@@H]3F)n2)cc1NC(=O)c1cnn2cc(-c3cncnc3)ccc12 [Example 155]	100 to 1000	100 to 1000
Cc1ccc(-c2noc([C@H]3C[C@@H]3F)n2)cc1NC(=O)c1cnn2ccc(-c3cnc(N(C)C)nc3)cc12 [Example 156]	< 100	< 100
Cc1ccc(-c2noc([C@H]3C[C@@H]3F)n2)cc1NC(=O)c1cnn2ccc(-c3cnc(C(F)(F)F)nc3)cc12 [Example 157]	100 to 1000	100 to 1000
Cc1ccc(-c2noc([C@H]3C[C@@H]3F)n2)cc1NC(=O)c1cnn2ccc(-c3cnc(C(C)(C)O)nc3)cc12 [Example 158]	100 to 1000	< 100
Cc1ccc(-c2noc([C@H]3C[C@@H]3F)n2)cc1NC(=O)c1cnn2ccc(-c3cnc(NC4CC4)nc3)cc12 [Example 159]	< 100	< 100
Cc1ccc(-c2noc([C@H]3C[C@@H]3F)n2)cc1NC(=O)c1cnn2ccc(-c3cnc(C4CC4)nc3)cc12 [Example 160]	< 100	< 100
Cc1ccc(-c2noc([C@H]3C[C@@H]3F)n2)cc1NC(=O)c1cnn2ccc(-c3c(C)n[nH]c3C)cc12 [Example 161]	< 100	< 100
Cc1ccc(-c2noc([C@H]3C[C@@H]3F)n2)cc1NC(=O)c1cnn2ccc(-c3c(C)nn(CCN4CCOCC4)c3C)cc12 [Example 162]	< 100	< 100
Cc1ncc(-c2ccn3ncc(C(=O)Nc4cc(-c5noc([C@H]6C[C@@H]6F)n5)ccc4C)c3c2)cn1 [Example 163]	< 100	< 100
Cc1ccc(-c2noc([C@H]3C[C@@H]3F)n2)cc1NC(=O)c1cnn2cc(F)c(-c3c(C)nn(CC(C)(C)O)c3C)cc12 [Example 164]	100 to 1000	100 to 1000
Cc1ccc(-c2noc([C@H]3C[C@@H]3F)n2)cc1NC(=O)c1cnn2cc(Cl)c(-c3c(C)nn(CC(C)(C)O)c3C)cc12 [Example 165]	> 1000	100 to 1000
Cc1ccc(-c2noc([C@H]3C[C@@H]3F)n2)cc1NC(=O)c1cnn2cc(F)c(-c3c(C)nn(C(F)F)c3C)cc12 [Example 166]	> 1000	100 to 1000
Cc1ccc(-c2noc([C@H]3C[C@@H]3F)n2)cc1NC(=O)c1cnn2ccc(C3CC4(C3)CC(F)(F)C4)cc12 [Example 167-1]	< 100	< 100
Cc1ccc(-c2noc([C@H]3C[C@@H]3F)n2)cc1NC(=O)c1cnn2cc(Cl)c(-c3c(C)nn(C(F)F)c3C)cc12 [Example 167]	> 1000	> 1000
Cc1ncc(-c2ccc3c(C(=O)Nc4cc(-c5noc([C@H]6C[C@@H]6F)n5)ccc4C)cnn3c2)c(C)n1 [Example 169]	100 to 1000	100 to 1000
Cc1nc(C)c(-c2ccn3ncc(C(=O)Nc4cc(-c5noc([C@H]6C[C@@H]6F)n5)ccc4C)c3c2)s1 [Example 170]	< 100	< 100
Cc1ccc(-c2noc([C@H]3C[C@@H]3F)n2)cc1NC(=O)c1cnn2ccc(-c3nnc(N)nc3C)cc12 [Example 171-1]	< 100	< 100

Compound	IC50 [1] [nM]	EC50 (M-07e cells) [nM]
Cc1cc(C)c(-c2ccn3ncc(C(=O)Nc4cc(-c5noc([C@H]6C[C@@H]6F)n5)ccc4C)c3c2)c(C)c1 [Example 171-2]	> 1000	> 1000
Cc1cc(C)c(-c2ccn3ncc(C(=O)Nc4cc(-c5noc([C@H]6C[C@@H](OC(F)(F)F)C6)n5)ccc4C)c3c2)c(C)c1 [Example 171-3]	> 1000	> 1000
Cc1nc(C)c(-c2ccn3ncc(C(=O)Nc4cc(-c5noc([C@H]6C[C@@H]6F)n5)ccc4C)c3c2)c(C)n1 [Example 171-4]	100 to 1000	100 to 1000
Cc1nc(C)c(-c2ccn3ncc(C(=O)Nc4cc(-c5noc([C@H]6C[C@@H](OC(F)(F)F)C6)n5)ccc4C)c3c2)c(C)n1 [Example 171-5]	100 to 1000	100 to 1000
Cc1ccc(-c2noc([C@H]3C[C@@H]3F)n2)cc1NC(=O)c1cnn2ccc(-c3c(C)nc(N)nc3C)cc12 [Example 171-6]	100 to 1000	< 100
Cc1ccc(-c2noc([C@H]3C[C@@H](OC(F)(F)F)C3)n2)cc1NC(=O)c1cnn2ccc(-c3c(C)nc(N)nc3C)cc12 [Example 171-7]	100 to 1000	100 to 1000
Cc1ccc(-c2noc([C@H]3C[C@@H]3F)n2)cc1NC(=O)c1cnn2ccc(-c3c(C)nc(Cl)nc3C)cc12 [Example 171-8]	100 to 1000	100 to 1000
Cc1ccc(-c2noc([C@H]3C[C@@H]3F)n2)cc1NC(=O)c1cnn2ccc(-c3cnccn3)cc12 [Example 171-9]	< 100	< 100
Cc1ncc(-c2noc([C@H]3C[C@@H]3F)n2)cc1NC(=O)c1cnn2ccc(-c3c(C)nc(N)nc3C)cc12 [Example 171-10]	> 1000	> 1000
Cc1ccc(-c2noc([C@H]3C[C@@H]3F)n2)cc1NC(=O)c1cnn2ccc(-c3c(C)nc(N4CCC4)nc3C)cc12 [Example 171-12]	100 to 1000	100 to 1000
Cc1ccc(-c2noc([C@H]3C[C@@H]3F)n2)cc1NC(=O)c1cnn2ccc(-c3c(C)nc(N4CC(F)(F)C4)nc3C)cc12 [Example 171-13]	100 to 1000	100 to 1000
Cc1ccc(-c2noc([C@H]3C[C@@H]3F)n2)cc1NC(=O)c1cnn2ccc(-c3c(C)nc(N4CC5(COC5)C4)nc3C)cc12 [Example 171-14]	100 to 1000	100 to 1000
Cc1ccc(-c2ccn3ncc(C(=O)Nc4cc(-c5noc([C@H]6C[C@@H]6F)n5)ccc4C)c3c2)c(C)n1 [Example 171-15]	< 100	< 100
Cc1ccc(-c2noc([C@H]3C[C@@H]3F)n2)cc1NC(=O)c1cnn2ccc(-c3ccc(C#N)nc3C)cc12 [Example 171-16]	< 100	< 100
Cc1ccc(-c2noc([C@H]3C[C@@H]3F)n2)cc1NC(=O)c1cnn2ccc(-c3ccc(N4CC(F)(F)C4)nc3C)cc12 [Example 171-17]	< 100	< 100
Cc1ccc(-c2noc([C@H]3C[C@@H]3F)n2)cc1NC(=O)c1cnn2ccc(-c3ccc(N4CCOCC4)nc3C)cc12 [Example 171-18]	< 100	< 100
Cc1ccc(-c2noc([C@H]3C[C@@H]3F)n2)cc1NC(=O)c1cnn2ccc(-c3ccc(N4CC5(COC5)C4)nc3C)cc12 [Example 171-19]	< 100	< 100
COc1ccc(-c2ccn3ncc(C(=O)Nc4cc(-c5noc([C@H]6C[C@@H]6F)n5)ccc4C)c3c2)c(C)n1 [Example 171-20]	< 100	< 100
Cc1ccc(-c2noc([C@H]3C[C@@H]3F)n2)cc1NC(=O)c1cnn2ccc(-c3cc(C(F)(F)F)nn3C)cc12 [Example 171-22]	100 to 1000	100 to 1000
Cc1ccc(-c2noc([C@H]3C[C@@H]3F)n2)cc1NC(=O)c1cnn2ccc(-c3cc(C(F)(F)F)nn3C(C)C)cc12 [Example 171-23]	> 1000	> 1000
Cc1ccc(-c2noc([C@H]3C[C@@H]3F)n2)cc1NC(=O)c1cnn2ccc(-c3cnc(N4CC(F)(F)C4)cc3C)cc12 [Example 171-24]	< 100	< 100
Cc1ccc(-c2noc([C@H]3C[C@@H]3F)n2)cc1NC(=O)c1cnn2ccc(-c3cnc(N4CC5(COC5)C4)cc3C)cc12 [Example 171-25]	< 100	< 100
Cc1cc(C)c(-c2ccn3ncc(C(=O)Nc4cc(-c5noc([C@H]6C[C@@H]6F)n5)ccc4C)c3c2)cn1 [Example 171-26]	< 100	< 100
Cc1ccc(-c2noc([C@H]3C[C@@H]3F)n2)cc1NC(=O)c1cnn2ccc(-c3cnc(N)cc3C)cc12 [Example 171-28]	< 100	< 100
Cc1ccc(-c2noc([C@H]3C[C@@H]3F)n2)cc1NC(=O)c1cnn2ccc(-c3ccc(N)nc3C)cc12 [Example 171-29]	< 100	< 100
Cc1cnc(-c2ccn3ncc(C(=O)Nc4cc(-c5noc([C@H]6C[C@@H]6F)n5)ccc4C)c3c2)c(C)n1 [Example 171-30]	< 100	< 100
